Reference: ChEMBL document CHEMBL4308841, “Synthesis, in vitro antiproliferative activity, and kinase inhibitory effects of pyrazole-containing diarylureas and diarylamides” (Eur J Med Chem, 2018)

Key:
SF-539 = assay: Growth inhibition of human SF539 cells incubated for 48 hrs by sulforhodamine B assay; type: functional, cell-based; details: SF-539, 48 h
RXF 393 = assay: Growth inhibition of human RXF393 cells incubated for 48 hrs by sulforhodamine B assay; type: functional, cell-based; details: RXF 393, 48 h
LOX IMVI = assay: Growth inhibition of human LOXIMVI cells assessed as cell growth at 1 uM incubated for 48 hrs by sulforhodamine B assay relative to control; type: functional; details: read-out: Activity
HT-29 [1] = assay: Growth inhibition of human HT-29 cells assessed as cell growth at 0.01 uM incubated for 48 hrs by sulforhodamine B assay relative to control; type: functional; details: HT-29, 48 h, read-out: Activity
OVCAR-5 [2] = assay: Growth inhibition of human OVCAR5 cells assessed as cell growth at 1 uM incubated for 48 hrs by sulforhodamine B assay relative to control; type: functional; details: OVCAR-5, 48 h, read-out: Activity
NCI-H460 [3] = assay: Growth inhibition of human NCI-H460 cells assessed as cell growth at 100 uM incubated for 48 hrs by sulforhodamine B assay relative to control; type: functional; details: NCI-H460, 48 h, read-out: Activity
COLO 205 = assay: Growth inhibition of human COLO205 cells assessed as cell growth at 0.1 uM incubated for 48 hrs by sulforhodamine B assay relative to control; type: functional; details: COLO 205, 48 h, read-out: Activity
HT-29 [4] = assay: Growth inhibition of human HT-29 cells assessed as cell growth at 100 uM incubated for 48 hrs by sulforhodamine B assay relative to control; type: functional; details: HT-29, 48 h, read-out: Activity
NCI-H322M = assay: Growth inhibition of human NCI-H322M cells assessed as cell growth at 100 uM incubated for 48 hrs by sulforhodamine B assay relative to control; type: functional; details: read-out: Activity
SW-620 = assay: Growth inhibition of human SW620 cells assessed as cell growth at 1 uM incubated for 48 hrs by sulforhodamine B assay relative to control; type: functional; details: SW-620, 48 h, read-out: Activity
OVCAR-5 [5] = assay: Growth inhibition of human OVCAR5 cells assessed as cell growth at 0.1 uM incubated for 48 hrs by sulforhodamine B assay relative to control; type: functional; details: OVCAR-5, 48 h, read-out: Activity
BT-549 = assay: Growth inhibition of human BT549 cells assessed as cell growth at 100 uM incubated for 48 hrs by sulforhodamine B assay relative to control; type: functional; details: BT-549, 48 h, read-out: Activity
UACC-62 = assay: Growth inhibition of human UACC62 cells assessed as cell growth at 100 uM incubated for 48 hrs by sulforhodamine B assay relative to control; type: functional; details: UACC-62, 48 h, read-out: Activity
U-251 = assay: Growth inhibition of human U251 cells incubated for 48 hrs by sulforhodamine B assay; type: functional, cell-based; details: U-251, 48 h
PC-3 = assay: Growth inhibition of human PC3 cells assessed as cell growth at 0.1 uM incubated for 48 hrs by sulforhodamine B assay relative to control; type: functional; details: PC-3, 48 h, read-out: Activity
HCT-116 = assay: Growth inhibition of human HCT116 cells assessed as cell growth at 1 uM incubated for 48 hrs by sulforhodamine B assay relative to control; type: functional; details: HCT-116, 48 h, read-out: Activity
OVCAR-8 [6] = assay: Growth inhibition of human OVCAR8 cells assessed as cell growth at 0.01 uM incubated for 48 hrs by sulforhodamine B assay relative to control; type: functional; details: OVCAR-8, 48 h, read-out: Activity
RPMI-8226 = assay: Growth inhibition of human RPMI8226 cells assessed as cell growth at 0.01 uM incubated for 48 hrs by sulforhodamine B assay relative to control; type: functional; details: RPMI-8226, 48 h, read-out: Activity
SNB-75 = assay: Growth inhibition of human SNB75 cells assessed as cell growth at 100 uM incubated for 48 hrs by sulforhodamine B assay relative to control; type: functional; details: SNB-75, 48 h, read-out: Activity
NCI-H460 [7] = assay: Growth inhibition of human NCI-H460 cells assessed as cell growth at 0.01 uM incubated for 48 hrs by sulforhodamine B assay relative to control; type: functional; details: NCI-H460, 48 h, read-out: Activity
SK-OV-3 = assay: Growth inhibition of human SKOV3 cells incubated for 48 hrs by sulforhodamine B assay; type: functional, cell-based; details: SK-OV-3, 48 h
Malme-3M = assay: Growth inhibition of human MALME-3M cells assessed as cell growth at 1 uM incubated for 48 hrs by sulforhodamine B assay relative to control; type: functional; details: read-out: Activity
NCI-H226 [8] = assay: Growth inhibition of human NCI-H226 cells assessed as cell growth at 0.01 uM incubated for 48 hrs by sulforhodamine B assay relative to control; type: functional; details: NCI-H226, 48 h, read-out: Activity
ACHN = assay: Growth inhibition of human ACHN cells assessed as cell growth at 1 uM incubated for 48 hrs by sulforhodamine B assay relative to control; type: functional; details: read-out: Activity
HT-29 [9] = assay: Growth inhibition of human HT-29 cells assessed as cell growth at 0.1 uM incubated for 48 hrs by sulforhodamine B assay relative to control; type: functional; details: HT-29, 48 h, read-out: Activity
NCI-H460 [10] = assay: Growth inhibition of human NCI-H460 cells incubated for 48 hrs by sulforhodamine B assay; type: functional, cell-based; details: NCI-H460, 48 h
NCI-H226 [11] = assay: Growth inhibition of human NCI-H226 cells incubated for 48 hrs by sulforhodamine B assay; type: functional, cell-based; details: NCI-H226, 48 h
SK-MEL-28 = assay: Growth inhibition of human SK-MEL-28 cells assessed as cell growth at 100 uM incubated for 48 hrs by sulforhodamine B assay relative to control; type: functional; details: SK-MEL-28, 48 h, read-out: Activity
OVCAR-8 [12] = assay: Growth inhibition of human OVCAR8 cells assessed as cell growth at 100 uM incubated for 48 hrs by sulforhodamine B assay relative to control; type: functional; details: OVCAR-8, 48 h, read-out: Activity
MCF7 = assay: Growth inhibition of human MCF7 cells assessed as cell growth at 100 uM incubated for 48 hrs by sulforhodamine B assay relative to control; type: functional; details: MCF7, 48 h, read-out: Activity
[13] = read-out: LC50 (the source's name)
[14] = read-out: pLC50 (the source's name) (converted)

## O=C(Nc1cccc(-n2cc(-c3ccncc3)c(-c3cc(O)cc(Cl)c3)n2)c1)c1cc(C(F)(F)F)cc(C(F)(F)F)c1
SF-539; read-out: GI50
  GI50: 5.01 µM
SF-539; [13]
  CC50: > 100 µM
SF-539; read-out: TGI
  TGI: 51.7 µM
SF-539; read-out: pGI50 (converted)
  GI50: 5.01 µM
SF-539; [14]
  CC50: > 100 µM
SF-539; read-out: pTGI (converted)
  TGI: 51.3 µM
RXF 393
  LC50: 24.5 µM
RXF 393; read-out: GI50
  GI50: 1.59 µM
RXF 393; read-out: TGI
  TGI: 43.6 µM
RXF 393; read-out: pGI50 (converted)
  GI50: 1.7 µM
RXF 393; read-out: pTGI (converted)
  TGI: 4.37 µM
LOX IMVI
  growth at 1 µM: 97%
HT-29 [1]
  growth at 0.01 µM: 96%
OVCAR-5 [2]
  growth at 1 µM: 99%
NCI-H460 [3]
  growth at 100 µM: 1%
COLO 205
  growth at 0.1 µM: 102%
HT-29 [4]
  growth at 100 µM: -5%
NCI-H322M
  growth at 100 µM: 13%
SW-620
  growth at 1 µM: 100%
OVCAR-5 [5]
  growth at 0.1 µM: 54%
BT-549
  growth at 100 µM: -12%
UACC-62
  growth at 100 µM: -35%
U-251
  IC50: 3.23 µM
U-251; read-out: GI50
  GI50: 3.23 µM
U-251; [13]
  CC50: > 100 µM
U-251; read-out: TGI
  TGI: 24.4 µM
U-251; read-out: pGI50 (converted)
  GI50: 3.24 µM
U-251; [14]
  CC50: > 100 µM
U-251; read-out: pTGI (converted)
  TGI: 30.9 µM
PC-3
  growth at 0.1 µM: 93%
HCT-116
  growth at 1 µM: 59%
OVCAR-8 [6]
  growth at 0.01 µM: 98%
RPMI-8226
  growth at 0.01 µM: 105%
SNB-75
  growth at 100 µM: 15%
NCI-H460 [7]
  growth at 0.01 µM: 101%
SK-OV-3; read-out: GI50
  GI50: 1.08 µM
SK-OV-3; [13]
  CC50: > 100 µM
SK-OV-3; read-out: TGI
  TGI: > 100 µM
SK-OV-3; read-out: pGI50 (converted)
  GI50: 10.7 µM
SK-OV-3; [14]
  CC50: > 100 µM
SK-OV-3; read-out: pTGI (converted)
  TGI: > 100 µM
Malme-3M
  growth at 1 µM: 59%
NCI-H226 [8]
  growth at 0.01 µM: 95%
ACHN
  growth at 1 µM: 99%
HT-29 [9]
  growth at 0.1 µM: 91%
NCI-H460 [10]; read-out: GI50
  GI50: 3.04 µM
NCI-H460 [10]; [13]
  CC50: > 100 µM
NCI-H460 [10]; read-out: TGI
  TGI: > 100 µM
NCI-H460 [10]; read-out: pGI50 (converted)
  GI50: 3.02 µM
NCI-H460 [10]; [14]
  CC50: > 100 µM
NCI-H460 [10]; read-out: pTGI (converted)
  TGI: > 100 µM
NCI-H226 [11]; read-out: GI50
  GI50: 1.51 µM
NCI-H226 [11]; read-out: LC50
  LC50: > 100 µM
NCI-H226 [11]; read-out: TGI
  TGI: > 100 µM
NCI-H226 [11]; read-out: pGI50 (converted)
  GI50: 16.2 µM
NCI-H226 [11]; read-out: pLC50 (converted)
  LC50: > 100 µM
NCI-H226 [11]; read-out: pTGI (converted)
  TGI: > 100 µM
SK-MEL-28
  growth at 100 µM: -2%

## COc1cc(Cl)cc(-c2nn(-c3cccc(NC(=O)Nc4cc(C(F)(F)F)cc(C(F)(F)F)c4)c3)cc2-c2ccncc2)c1
SF-539
  IC50: 1.41 µM
SF-539; [13]
  CC50: 0.055 µM
SF-539; read-out: TGI
  TGI: 3.49 µM
SF-539; read-out: pGI50 (converted)
  GI50: 1.41 µM
SF-539; [14]
  CC50: 8.71 µM
SF-539; read-out: pTGI (converted)
  TGI: 3.55 µM
RXF 393
  IC50: 1.26 µM
  LC50: 14.8 µM
RXF 393; read-out: TGI
  TGI: 3.92 µM
RXF 393; read-out: pGI50 (converted)
  GI50: 1.26 µM
RXF 393; read-out: pTGI (converted)
  TGI: 3.89 µM
HT-29 [1]
  growth at 0.01 µM: 102%
OVCAR-5 [2]
  growth at 1 µM: 59%
NCI-H460 [3]
  growth at 100 µM: -84%
COLO 205
  growth at 0.1 µM: 98%
HT-29 [4]
  growth at 100 µM: -96%
NCI-H322M
  growth at 100 µM: -78%
SW-620
  growth at 1 µM: 19%
OVCAR-5 [5]
  growth at 0.1 µM: 95%
BT-549
  growth at 100 µM: -80%
UACC-62
  growth at 100 µM: -71%
U-251
  IC50: 0.32 µM
U-251; read-out: GI50
  GI50: 0.324 µM
U-251; [13]
  CC50: 0.043 µM
U-251; read-out: TGI
  TGI: 1.31 µM
U-251; read-out: pGI50 (converted)
  GI50: 0.324 µM
U-251; [14]
  CC50: 4.37 µM
U-251; read-out: pTGI (converted)
  TGI: 1.32 µM
PC-3
  growth at 0.1 µM: 91%
HCT-116
  growth at 1 µM: 7%
OVCAR-8 [6]
  growth at 0.01 µM: 99%
RPMI-8226
  growth at 0.01 µM: 93%
SNB-75
  growth at 100 µM: -58%
NCI-H460 [7]
  growth at 0.01 µM: 101%
SK-OV-3
  IC50: 0.77 µM
SK-OV-3; read-out: GI50
  GI50: 0.77 µM
SK-OV-3; [13]
  CC50: 0.0412 µM
SK-OV-3; read-out: TGI
  TGI: 5.75 µM
SK-OV-3; read-out: pGI50 (converted)
  GI50: 0.776 µM
SK-OV-3; [14]
  CC50: 41.7 µM
SK-OV-3; read-out: pTGI (converted)
  TGI: 5.75 µM
Malme-3M
  growth at 1 µM: 36%
NCI-H226 [8]
  growth at 0.01 µM: 101%
ACHN
  growth at 1 µM: 17%
HT-29 [9]
  growth at 0.1 µM: 101%
NCI-H460 [10]
  IC50: 0.38 µM
NCI-H460 [10]; read-out: GI50
  GI50: 0.377 µM
NCI-H460 [10]; read-out: TGI
  TGI: 1.76 µM
NCI-H460 [10]; read-out: pGI50 (converted)
  GI50: 0.38 µM
NCI-H460 [10]; [14]
  CC50: 17.4 µM
NCI-H460 [10]; read-out: pTGI (converted)
  TGI: 1.78 µM
NCI-H226 [11]
  IC50: 0.7 µM
NCI-H226 [11]; read-out: GI50
  GI50: 0.704 µM
NCI-H226 [11]; read-out: LC50
  LC50: > 100 µM
NCI-H226 [11]; read-out: TGI
  TGI: 5.17 µM
NCI-H226 [11]; read-out: pGI50 (converted)
  GI50: 0.708 µM
NCI-H226 [11]; read-out: pLC50 (converted)
  LC50: > 100 µM
NCI-H226 [11]; read-out: pTGI (converted)
  TGI: 5.13 µM
OVCAR-8 [12]
  growth at 100 µM: -62%
SK-MEL-28
  growth at 100 µM: -58%
MCF7
  growth at 100 µM: -44%
